Reference: PMC5343011, “Phenol-Soluble Modulin α Peptide Toxins from Aggressive Staphylococcus aureus Induce Rapid Formation of Neutrophil Extracellular Traps through a Reactive Oxygen Species-Independent Pathway” (Frontiers in Immunology, 2017)

What was measured:
neutrophils [1] = assay: Plasma membrane disruption by lactate dehydrogenase (LDH) release; assay type: cell-based, human; settings: 10 min, 37°C, relative to Triton X-100-treated samples, two independent experiments in triplicates
Protocol: Neutrophils (2 × 10^6 cells/ml) were incubated with PSMα2 or hexadecyltrimethylammonium bromide (CTAB, Sigma) for 10 min at 37°C. LDH was measured in the supernatants with cytotoxicity detection kit (LDH, Roche) as described in Ref. ([25]).

neutrophils [2] = assay: Sytox Green DNA release / NET formation; assay type: cell-based, human
Protocol: Peripheral blood neutrophils were isolated from 1-day-old buffy coats from healthy blood donors or from peripheral blood from patients and healthy controls. Neutrophil separation was performed as first described by Boyum ([23]). Briefly, after dextran, sedimentation at 1 × g the suspension was centrifuged on Ficoll-Paque, and the remaining erythrocytes were lysed by hypotonic treatment. The neutrophils were then washed in Krebs Ringer phosphate buffer (KRG) and finally resuspended in KRG supplemented with Ca^2+ (1 mM) and kept on melting ice until used. Buffy coats were obtained from the Sahlgrenska University Hospital blood bank after deidentification, and according to the Swedish legislation section code 4§ 3 p SFS2003:460, no informed consent is needed. Peripheral blood from one MPO-deficient individual, one patient with Papillon-Lefèvre syndrome, and healthy controls were obtained after written informed consent, and the study was approved by the Regional Ethical Review Board in Gothenburg, Sweden.
Cells (5 × 10^4 cells/well) in RPMI (without phenol red) and the Sytox Green DNA stain (1.25 μM; Molecular Probes) were added to black 96-well plates and incubated at 37°C and 5% CO2 ([5]). Inhibitors, PBP10 (CASLO Laboratory) or diphenyleneiodonium chloride (DPI; Sigma-Aldrich), were preincubated with cells for 10 min at 37°C and 5% CO2 prior to stimulation. Sytox Green fluorescence was measured at indicated time points at 485/535 nm in a Mithras LB940 (Berthold Technologies) or in a CLARIOstar plate reader (BMG Labtech).

neutrophils [3] = settings: cited from earlier work
Source text: Further, we have shown that enzymatic conversion of ROS by MPO inside granules is a prerequisite for PMA-induced NET formation ([10]). We thus investigated whether MPO was required for PSMα-induced NET formation by using neutrophils from a completely MPO-deficient donor [previously described in Ref. ([10])] that was sampled at two occasions (with nearly identical results). Neutrophils fro ...

neutrophils [4] = assay: Nuclear membrane integrity (SUN2 staining, confocal microscopy); assay type: cell-based, human; settings: SUN2 and DNA staining, three independent experiments
Protocol: Neutrophils or human A375 melanoma cells (2.5 × 10^5 cells/well) were suspended in RPMI and added to poly-lysine-coated coverslips. After stimulation with PMA (50 nM; Sigma-Aldrich) or PSMα (indicated concentrations), the cells were incubated at 37°C in the presence of 5% CO2 or at 4°C for indicated time. To visualize NETs, samples were fixed in 4% paraformaldehyde for 30 min at room temperature and stained with antibodies against MPO (DAKO), NE (Calbiochem), or Histone-1 (Acris) followed by secondary antibody staining. Finally, the coverslips were incubated with DAPI (1 μg/ml) for 5 min and then mounted in ProLong Gold antifade (Molecular Probes). For nuclear morphology experiments, neutrophils were incubated with PSMα2 for 10 min or with PMA for 30 min or 2 h, the cells were fixed on ice with 4% paraformaldehyde, permeabilized with cold acetone and methanol (1:1) for 5 min, and stained with SUN2 antibody (Abcam) followed by secondary antibody staining. To visualize microbes in the NETs, we used green fluorescent protein (GFP)-expressing Candida albicans, strain CAI4 containing a C. albicans-specific pENO1-GFP-CyC1t plasmid ([26]), or S. aureus, strain RN4220 containing the pCN-GFP plasmid that was a kind gift from Dr. Maria Lerm (Linköping University, Sweden). […]

A375 melanoma cells = assay: Microscopic visualization of melanoma cells (DAPI); assay type: cell-based, human; settings: PSMα2 or PSMα3 2.5 μM for 1 h, PMA 50 nM for 3 h, three independent experiments
Protocol: The human melanoma cell line A375 was a kind gift from Professor Jonas A. Nilsson (Sahlgrenska Cancer Center, University of Gothenburg, Sweden). The cells were cultured in DMEM with 10% FCS, 100 U/ml penicillin, and 100 μg/ml streptomycin at 37°C and 5% CO2. Before being used experimentally, the cells were detached from the flasks’ surface by incubation with 0.25% trypsin in 37°C for 10 min followed by washing and resuspension in RPMI culture media.
Neutrophils or human A375 melanoma cells (2.5 × 10^5 cells/well) were suspended in RPMI and added to poly-lysine-coated coverslips. After stimulation with PMA (50 nM; Sigma-Aldrich) or PSMα (indicated concentrations), the cells were incubated at 37°C in the presence of 5% CO2 or at 4°C for indicated time. To visualize NETs, samples were fixed in 4% paraformaldehyde for 30 min at room temperature and stained with antibodies against MPO (DAKO), NE (Calbiochem), or Histone-1 (Acris) followed by secondary antibody staining. Finally, the coverslips were incubated with DAPI (1 μg/ml) for 5 min and then mounted in ProLong Gold antifade (Molecular Probes). […]

[5] = system: Formyl peptide receptor (FPR) 1 / FPR2; settings: receptor through which the peptide activates neutrophils; dash = inactive; cited from earlier work
Source text: Table 1 Peptide sequences and receptor preferences of PSMα2. | column: Receptor preference^a

With `CCCCCCCCCCCCCCCC[N+](C)(C)C` [CTAB, hexadecyltrimethylammonium bromide] the LDH release (neutrophils [1]) was “close to maximal” and the “NET formation (Sytox Green fluorescence) after detergent treatment” value (neutrophils [2]; 10 min, two independent experiments in triplicates) was “did not cause NET formation”.

In the case of `c1ccc2c(c1)[I+]c1ccccc1-2` [DPI, diphenyleneiodonium chloride], the “Effect of NADPH oxidase inhibitor on PMA-induced NET formation” value (neutrophils [2]; PMA 50 nM, DPI 10 μM, three independent experiments) was “potently inhibited” and the “Effect of NADPH oxidase inhibitor on PSMα-induced NETs” value (neutrophils [2]; PSMα2 2.5 μM, DPI 10 μM, three independent experiments) was “without effect”.

For `CCCCCCCCCCCCCC(=O)O[C@@H]1[C@@H](C)[C@@]2(O)[C@@H](C=C(CO)C[C@]3(O)C(=O)C(C)=C[C@@H]23)[C@@H]2C(C)(C)[C@]12OC(C)=O` [PMA, phorbol myristate acetate], the “NET formation by neutrophils from a completely MPO-deficient donor in response to PMA” value (neutrophils [3]) is given as “unable to form NETs”, the “Stimulation time at which disruption of nuclear membranes was first observed” value (neutrophils [4]) is given as 2 h and the “Time to increase in Sytox green fluorescence” value (neutrophils [2]; PMA 50 nM, 37°C, three independent experiments) is given as 3 h. The “Extracellular DNA release from melanoma cells” value (A375 melanoma cells) was “did not induce any DNA expulsion”.

In the case of “f-MGIIA [1–5, shorter PSMα2 variant, amino acids 1–5]”, the Receptor preference [5] is given as “Formyl peptide receptor (FPR) 1”.

In the case of “f-MGIIAGIIKF [1–10, shorter PSMα2 variant, amino acids 1–10]”, the Receptor preference [5] is listed as “FPR1”.

For “f-MGIIAGIIKFIK [1–12, shorter PSMα2 variant, amino acids 1–12]”, the Receptor preference [5] is listed as “FPR1/FPR2”.

In the case of “f-MGIIAGIIKFIKGLIE [1–16, shorter PSMα2 variant, amino acids 1–16]”, the Receptor preference [5] is listed as “FPR2”.
